Laboratory results from ChEMBL document CHEMBL4507260 (2021).

Key:
Conditions in all cases: Compound concentration 1000.0 nM
[1] = tested on: Tyrosine-protein kinase ABL1 (Homo sapiens), P00519 [F317L]
[2] = tested on: Tyrosine-protein kinase ABL1 (Homo sapiens), P00519 [M351T]
[3] = target: Activin receptor type-2A (Homo sapiens) (UniProt P27037)
[4] = target: Activin receptor type-1-like (Homo sapiens) (UniProt P37023)
[5] = tested on: ALK tyrosine kinase receptor (Homo sapiens), Q9UM73 [C1156Y]
[6] = target: Ankyrin repeat and protein kinase domain-containing protein 1 (Homo sapiens) (UniProt Q8NFD2)
Chain of Ankyrin repeat and protein kinase domain-containing protein 1 (Homo sapiens) (Q8NFD2 whole entry, the tested form may be a part): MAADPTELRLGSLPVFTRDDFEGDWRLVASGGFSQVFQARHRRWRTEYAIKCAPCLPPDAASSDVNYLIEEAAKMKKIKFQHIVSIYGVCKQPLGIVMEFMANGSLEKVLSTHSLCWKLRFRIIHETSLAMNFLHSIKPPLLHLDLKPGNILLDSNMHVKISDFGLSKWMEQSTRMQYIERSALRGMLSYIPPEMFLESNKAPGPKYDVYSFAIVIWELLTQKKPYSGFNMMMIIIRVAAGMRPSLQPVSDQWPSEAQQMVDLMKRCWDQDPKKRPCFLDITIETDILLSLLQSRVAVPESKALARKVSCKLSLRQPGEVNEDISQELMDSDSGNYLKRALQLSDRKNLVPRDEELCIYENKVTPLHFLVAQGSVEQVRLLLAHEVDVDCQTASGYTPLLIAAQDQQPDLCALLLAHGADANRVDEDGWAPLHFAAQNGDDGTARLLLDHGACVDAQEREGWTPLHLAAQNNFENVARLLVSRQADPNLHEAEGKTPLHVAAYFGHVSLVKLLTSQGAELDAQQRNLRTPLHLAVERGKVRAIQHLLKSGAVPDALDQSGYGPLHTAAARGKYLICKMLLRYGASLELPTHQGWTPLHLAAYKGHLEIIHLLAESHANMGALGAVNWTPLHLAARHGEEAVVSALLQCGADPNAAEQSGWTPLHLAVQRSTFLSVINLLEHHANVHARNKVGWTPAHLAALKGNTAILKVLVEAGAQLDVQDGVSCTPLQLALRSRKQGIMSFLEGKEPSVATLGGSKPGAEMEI

[7] = target: Mitogen-activated protein kinase kinase kinase 6 (Homo sapiens) (UniProt O95382)
[8] = target: Cytoplasmic tyrosine-protein kinase BMX (Homo sapiens) (UniProt P51813)
[9] = target: Calcium/calmodulin-dependent protein kinase type IV (Homo sapiens) (UniProt Q16566)
[10] = target: Cyclin-dependent kinase 19 (Homo sapiens) (UniProt Q9BWU1)
[11] = target: Cyclin-dependent kinase 4 (Homo sapiens) (UniProt P11802)
[12] = target: Dual specificity protein kinase CLK2 (Homo sapiens) (UniProt P49760)
[13] = target: Dual specificity protein kinase CLK3 (Homo sapiens) (UniProt P49761)
Chain of Dual specificity protein kinase CLK3 (Homo sapiens) (P49761 whole entry, looked up): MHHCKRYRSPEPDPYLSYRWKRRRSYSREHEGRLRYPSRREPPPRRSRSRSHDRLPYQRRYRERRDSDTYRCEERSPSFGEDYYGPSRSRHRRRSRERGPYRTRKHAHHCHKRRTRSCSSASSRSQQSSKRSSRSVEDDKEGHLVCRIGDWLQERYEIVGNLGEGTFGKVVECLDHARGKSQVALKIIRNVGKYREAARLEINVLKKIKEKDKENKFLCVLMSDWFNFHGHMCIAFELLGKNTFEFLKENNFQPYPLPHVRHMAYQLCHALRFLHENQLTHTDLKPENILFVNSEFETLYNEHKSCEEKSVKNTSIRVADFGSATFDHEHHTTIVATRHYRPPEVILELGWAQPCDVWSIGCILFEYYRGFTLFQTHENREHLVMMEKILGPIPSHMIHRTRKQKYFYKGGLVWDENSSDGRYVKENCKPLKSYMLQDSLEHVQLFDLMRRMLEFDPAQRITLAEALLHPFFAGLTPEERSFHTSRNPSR

[14] = target: Death-associated protein kinase 3 (Homo sapiens) (UniProt O43293)
[15] = tested on: Epidermal growth factor receptor (Homo sapiens), P00533 [L858R,T790M]
[16] = tested on: Epidermal growth factor receptor (Homo sapiens), P00533 [UNDEFINED MUTATION]
[17] = target: Mitogen-activated protein kinase 3 (Homo sapiens) (UniProt P27361)
[18] = target: Tyrosine-protein kinase Fes/Fps (Homo sapiens) (UniProt P07332)
[19] = target: Fibroblast growth factor receptor 1 (Homo sapiens) (UniProt P11362)
[20] = target: Receptor-type tyrosine-protein kinase FLT3 (Homo sapiens) (UniProt P36888)
Chain of Receptor-type tyrosine-protein kinase FLT3 (Homo sapiens) (P36888 whole entry): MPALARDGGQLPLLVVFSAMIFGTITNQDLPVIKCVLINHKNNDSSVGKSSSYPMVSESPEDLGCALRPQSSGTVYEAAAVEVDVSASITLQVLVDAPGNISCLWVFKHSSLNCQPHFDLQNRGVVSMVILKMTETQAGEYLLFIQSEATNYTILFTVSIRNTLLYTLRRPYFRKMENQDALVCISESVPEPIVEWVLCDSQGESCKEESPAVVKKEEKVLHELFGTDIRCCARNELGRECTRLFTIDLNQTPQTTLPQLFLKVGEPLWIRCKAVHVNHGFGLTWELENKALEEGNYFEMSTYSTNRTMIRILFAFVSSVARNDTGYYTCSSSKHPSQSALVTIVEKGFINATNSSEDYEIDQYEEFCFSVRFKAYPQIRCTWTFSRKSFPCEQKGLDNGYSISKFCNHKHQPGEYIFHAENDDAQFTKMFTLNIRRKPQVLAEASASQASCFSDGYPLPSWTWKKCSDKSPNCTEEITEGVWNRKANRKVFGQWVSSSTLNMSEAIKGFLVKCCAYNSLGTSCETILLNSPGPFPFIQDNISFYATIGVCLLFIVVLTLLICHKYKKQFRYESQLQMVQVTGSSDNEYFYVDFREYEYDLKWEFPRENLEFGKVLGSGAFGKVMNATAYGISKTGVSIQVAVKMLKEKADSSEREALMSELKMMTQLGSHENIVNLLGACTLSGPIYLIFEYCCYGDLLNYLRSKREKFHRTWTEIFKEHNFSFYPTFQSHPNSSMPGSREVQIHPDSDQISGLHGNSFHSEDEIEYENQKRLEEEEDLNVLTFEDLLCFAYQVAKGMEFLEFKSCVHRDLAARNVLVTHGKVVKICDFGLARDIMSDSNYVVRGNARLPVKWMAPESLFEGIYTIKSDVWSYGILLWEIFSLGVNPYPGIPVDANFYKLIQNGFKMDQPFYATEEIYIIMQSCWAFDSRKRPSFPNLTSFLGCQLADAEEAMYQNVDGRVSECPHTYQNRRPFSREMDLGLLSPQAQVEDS

[21] = target: Rhodopsin kinase GRK1 (Homo sapiens) (UniProt Q15835)
Chain of Rhodopsin kinase GRK1 (Homo sapiens) (Q15835 whole entry): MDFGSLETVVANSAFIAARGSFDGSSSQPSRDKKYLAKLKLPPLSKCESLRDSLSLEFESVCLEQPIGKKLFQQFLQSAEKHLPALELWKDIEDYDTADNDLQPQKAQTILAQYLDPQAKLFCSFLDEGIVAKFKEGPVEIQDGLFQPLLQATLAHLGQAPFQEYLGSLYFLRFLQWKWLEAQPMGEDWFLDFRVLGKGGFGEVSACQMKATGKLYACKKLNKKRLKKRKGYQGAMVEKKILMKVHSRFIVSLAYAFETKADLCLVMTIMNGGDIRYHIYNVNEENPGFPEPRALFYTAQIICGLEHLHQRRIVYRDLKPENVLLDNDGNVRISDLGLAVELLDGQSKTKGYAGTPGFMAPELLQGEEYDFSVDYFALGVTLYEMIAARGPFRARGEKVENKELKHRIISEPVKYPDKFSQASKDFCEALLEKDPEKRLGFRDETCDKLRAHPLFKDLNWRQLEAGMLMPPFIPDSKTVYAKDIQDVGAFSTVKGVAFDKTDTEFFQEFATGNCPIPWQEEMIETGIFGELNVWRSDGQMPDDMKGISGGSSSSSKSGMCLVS

[22] = target: Glycogen synthase kinase-3 alpha (Homo sapiens) (UniProt P49840)
[23] = target: Glycogen synthase kinase-3 beta (Homo sapiens) (UniProt P49841)
[24] = target: Mitogen-activated protein kinase kinase kinase kinase 1 (Homo sapiens) (UniProt Q92918)
[25] = target: Serine/threonine-protein kinase ICK (Homo sapiens) (UniProt Q9UPZ9)
[26] = target: Mitogen-activated protein kinase kinase kinase 15 (Homo sapiens) (UniProt Q6ZN16)
[27] = target: Dual specificity mitogen-activated protein kinase kinase 6 (Homo sapiens) (UniProt P52564)
Chain of Dual specificity mitogen-activated protein kinase kinase 6 (Homo sapiens) (P52564 whole entry): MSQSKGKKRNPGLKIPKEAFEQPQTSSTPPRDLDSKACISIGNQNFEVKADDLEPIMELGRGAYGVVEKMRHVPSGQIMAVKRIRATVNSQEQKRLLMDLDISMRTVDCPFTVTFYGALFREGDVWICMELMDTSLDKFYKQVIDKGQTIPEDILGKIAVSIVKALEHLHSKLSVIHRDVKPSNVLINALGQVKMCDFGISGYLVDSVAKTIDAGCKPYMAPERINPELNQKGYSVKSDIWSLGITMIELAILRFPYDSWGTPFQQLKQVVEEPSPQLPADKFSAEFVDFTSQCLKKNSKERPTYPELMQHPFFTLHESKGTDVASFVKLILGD

[28] = tested on: Hepatocyte growth factor receptor (Homo sapiens), P08581 [Y1235D]
[29] = target: Serine/threonine-protein kinase mTOR (Homo sapiens) (UniProt P42345)
[30] = target: Myosin light chain kinase 2, skeletal/cardiac muscle (Homo sapiens) (UniProt Q9H1R3)
[31] = target: Serine/threonine-protein kinase Nek2 (Homo sapiens) (UniProt P51955)
Chain of Serine/threonine-protein kinase Nek2 (Homo sapiens) (P51955 whole entry): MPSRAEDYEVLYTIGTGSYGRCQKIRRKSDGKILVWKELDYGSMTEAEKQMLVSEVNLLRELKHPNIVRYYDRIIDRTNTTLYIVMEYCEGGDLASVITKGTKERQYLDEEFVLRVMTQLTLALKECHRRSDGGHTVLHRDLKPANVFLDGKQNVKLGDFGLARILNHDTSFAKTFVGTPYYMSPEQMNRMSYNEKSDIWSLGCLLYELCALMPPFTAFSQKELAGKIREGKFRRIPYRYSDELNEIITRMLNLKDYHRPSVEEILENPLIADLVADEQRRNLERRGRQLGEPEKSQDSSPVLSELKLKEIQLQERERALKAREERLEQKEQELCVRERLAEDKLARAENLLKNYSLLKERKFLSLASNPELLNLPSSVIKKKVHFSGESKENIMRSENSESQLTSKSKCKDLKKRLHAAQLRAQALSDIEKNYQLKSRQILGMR

[32] = target: 3-phosphoinositide-dependent protein kinase 1 (Homo sapiens) (UniProt O15530)
[33] = target: Calcium-dependent protein kinase 1 (Plasmodium falciparum) (UniProt P62344)
Chain of Calcium-dependent protein kinase 1 (Plasmodium falciparum) (P62344 2-524 limits assumed): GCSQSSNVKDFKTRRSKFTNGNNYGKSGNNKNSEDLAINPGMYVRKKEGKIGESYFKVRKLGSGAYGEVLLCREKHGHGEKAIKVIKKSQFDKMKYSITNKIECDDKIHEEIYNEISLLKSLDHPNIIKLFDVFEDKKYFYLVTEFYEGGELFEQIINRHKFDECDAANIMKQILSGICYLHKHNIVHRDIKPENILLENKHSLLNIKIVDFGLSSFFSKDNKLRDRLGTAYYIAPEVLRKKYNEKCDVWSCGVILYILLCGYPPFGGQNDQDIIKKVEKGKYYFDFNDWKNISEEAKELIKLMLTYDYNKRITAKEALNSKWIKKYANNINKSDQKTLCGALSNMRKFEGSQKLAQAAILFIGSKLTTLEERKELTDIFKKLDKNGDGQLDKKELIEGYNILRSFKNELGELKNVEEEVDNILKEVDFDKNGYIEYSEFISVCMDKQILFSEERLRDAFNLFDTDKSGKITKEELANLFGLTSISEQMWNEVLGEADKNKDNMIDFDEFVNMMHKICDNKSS

[34] = target: Phosphatidylinositol 4-phosphate 3-kinase C2 domain-containing subunit beta (Homo sapiens) (UniProt O00750)
[35] = target: Serine/threonine-protein kinase N1 (Homo sapiens) (UniProt Q16512)
[36] = target: Serine/threonine-protein kinase PknB (Mycobacterium tuberculosis) (UniProt P9WI81)
[37] = target: Serine/threonine-protein kinase PLK2 (Homo sapiens) (UniProt Q9NYY3)
[38] = target: Protein kinase C theta type (Homo sapiens) (UniProt Q04759)
[39] = target: Serine/threonine-protein kinase D2 (Homo sapiens) (UniProt Q9BZL6)
Chain of Serine/threonine-protein kinase D2 (Homo sapiens) (Q9BZL6 whole entry): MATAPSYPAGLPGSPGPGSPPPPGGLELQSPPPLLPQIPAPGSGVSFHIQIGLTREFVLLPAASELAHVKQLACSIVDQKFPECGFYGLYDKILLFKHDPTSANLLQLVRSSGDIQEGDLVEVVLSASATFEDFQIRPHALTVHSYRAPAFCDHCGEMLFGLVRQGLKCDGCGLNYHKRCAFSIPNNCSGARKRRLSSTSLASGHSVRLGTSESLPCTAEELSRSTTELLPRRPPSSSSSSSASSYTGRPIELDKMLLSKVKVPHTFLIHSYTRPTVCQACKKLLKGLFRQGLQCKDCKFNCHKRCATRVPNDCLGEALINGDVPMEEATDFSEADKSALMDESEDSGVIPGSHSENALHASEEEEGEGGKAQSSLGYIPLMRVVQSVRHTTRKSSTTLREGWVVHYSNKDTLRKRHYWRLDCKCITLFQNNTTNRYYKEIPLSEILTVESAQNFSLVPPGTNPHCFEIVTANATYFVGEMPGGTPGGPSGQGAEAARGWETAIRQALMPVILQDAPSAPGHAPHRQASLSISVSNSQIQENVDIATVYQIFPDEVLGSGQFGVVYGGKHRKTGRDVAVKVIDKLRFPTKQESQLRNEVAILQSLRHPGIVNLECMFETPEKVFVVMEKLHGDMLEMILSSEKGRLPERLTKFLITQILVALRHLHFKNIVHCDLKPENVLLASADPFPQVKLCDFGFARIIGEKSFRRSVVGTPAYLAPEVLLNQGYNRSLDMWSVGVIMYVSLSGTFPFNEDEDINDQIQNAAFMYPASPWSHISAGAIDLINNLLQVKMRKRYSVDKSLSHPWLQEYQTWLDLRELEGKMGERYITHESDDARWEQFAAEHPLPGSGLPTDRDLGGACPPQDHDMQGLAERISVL

[40] = target: NUAK family SNF1-like kinase 2 (Homo sapiens) (UniProt Q9H093)
[41] = target: SRSF protein kinase 2 (Homo sapiens) (UniProt P78362)
[42] = target: Serine/threonine-protein kinase tousled-like 2 (Homo sapiens) (UniProt Q86UE8)
[43] = target: Serine/threonine-protein kinase WNK1 (Homo sapiens) (UniProt Q9H4A3)
[44] = target: Mitogen-activated protein kinase kinase kinase 19 (Homo sapiens) (UniProt Q56UN5)
[45] = target: Mitogen-activated protein kinase kinase kinase 20 (Homo sapiens) (UniProt Q9NYL2)

Measured: residual activity

CSc1cccnc1N1CCN(Cc2nc3ccccc3[nH]2)CC1 [A-769]
inactive: [1] 100% | [2] 94% | [3] 69% | [4] 100% | [5] 93% | [6] 92% | [7] 92% | [8] 100% | [9] 100% | [10] 96% | [11] 77% | [12] 100% | [13] 85% | [14] 100% | [15] 91% | [16] 100% | [17] 99% | [18] 98% | [19] 100% | [20] 100% | [21] 100% | [22] 100% | [23] 78% | [24] 100% | [25] 68% | [26] 67% | [27] 100% | [28] 89% | [29] 100% | [30] 100% | [31] 96% | [32] 99% | [33] 89% | [34] 94% | [35] 100% | [36] 87% | [37] 71% | [38] 100% | [39] 100% | [40] 100% | [41] 59% | [42] 100% | [43] 100% | [44] 72% | [45] 100%

c1ccc(N2CCN(Cc3nc4ccccc4[nH]3)CC2)nc1 [ABT-724]
inactive: [1] 100% | [2] 100% | [3] 100% | [4] 95% | [5] 100% | [6] 100% | [7] 98% | [8] 100% | [9] 88% | [10] 87% | [11] 100% | [12] 89% | [13] 100% | [14] 91% | [15] 100% | [16] 90% | [17] 100% | [18] 100% | [19] 100% | [20] 100% | [21] 92% | [22] 66% | [23] 93% | [24] 100% | [25] 100% | [26] 100% | [27] 100% | [28] 100% | [29] 100% | [30] 91% | [31] 100% | [32] 89% | [33] 99% | [34] 85% | [35] 88% | [36] 87% | [37] 100% | [38] 98% | [39] 91% | [40] 100% | [41] 100% | [42] 100% | [43] 100% | [44] 100% | [45] 92%
